Source: publication PMC8243516, “Inhibition of lysosomal phospholipase A2 predicts drug-induced phospholipidosis” (Journal of Lipid Research, 2021)
Structures can show the parent of a compound that is named as a salt. Where two headings read alike, the source gives them in different places.

Legend:
[1] = target: T1, recombinant mouse LPLA2 (PLA2G15) (Mus musculus, UniProt Q8VEB4); experiment: Transacylase activity of LPLA2 (1-O-acyl-N-acetylsphingosine synthase, cell-free liposome assay); format: biochemical
T1 construct: purchased Proteos Inc. (Kalamazoo, MI)
T1 sequence (Q8VEB4 34-412): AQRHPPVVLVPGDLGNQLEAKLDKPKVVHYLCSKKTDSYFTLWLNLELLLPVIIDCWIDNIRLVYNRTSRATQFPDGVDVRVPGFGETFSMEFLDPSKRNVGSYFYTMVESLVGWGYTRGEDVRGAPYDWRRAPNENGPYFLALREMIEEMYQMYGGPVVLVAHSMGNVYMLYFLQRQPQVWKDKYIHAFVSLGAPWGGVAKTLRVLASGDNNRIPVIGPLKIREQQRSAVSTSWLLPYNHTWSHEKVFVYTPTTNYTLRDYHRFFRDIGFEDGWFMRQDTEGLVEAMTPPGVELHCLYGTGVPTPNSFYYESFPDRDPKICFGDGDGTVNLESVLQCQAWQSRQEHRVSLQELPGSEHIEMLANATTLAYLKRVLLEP

[2] = ref Pubchem and chEMBL databases; cited from earlier work
LPLA2 = target: T2, LPLA2 (Mus musculus, UniProt Q8VEB4); experiment: LPLA2 thermal stability measurement (SYPRO Orange Tm); format: binding
T2 construct: purchased Proteos Inc. (Kalamazoo, MI)
T2 sequence (Q8VEB4 34-412): T1 sequence (Q8VEB4 34-412)

phospholipidosis = conditions: cited from earlier work
[3] = 1-O-acyl N-acetylsphingosine synthase activity, pH 4.5, DOPC/sulfatide liposomes, read-out: LPLA2 IC50
[4] = phospholipidosis reported in vitro, Refs of Table 1

Structure (SMILES)	IC50 [1, 3] [µM]	pKa (basic) [2]	(ΔTm)c-(ΔTm)d, difference in melting temperature of LPLA2 alone or in the presence of drug (LPLA2; N=3 ± SD) [°C]	In Vitro PLD (phospholipidosis; [4])	also measured
C=CCc1ccccc1OCC(O)CNC(C)C (centres unmarked) [Alprenolol, 1-(o-allylphenoxy)-3-(isopropylamino)-2-propanol]	173	9.67	-1.00 ± 0.1	Yes	–
CCN(CCCc1ccccc1)CCCc1ccccc1 [Alverine, ethyl bis (3-phenylpropyl)amine]	40	10.44	0.14 ± 0.1	Yes	–
CCC(C)(C)c1ccc(CC(C)CN2C[C@@H](C)O[C@@H](C)C2)cc1 (stereo partly drawn) [Amorolfine, 2R,6S-2,6-dimethyl-4-(2-{[4-(2-methylbutan-2-yl)phenyl]methyl}propyl)morpholine]	41.5	8.49	-0.30 ± 0.1	Yes	–
COc1ccc(CCN2CCC(Nc3nc4ccccc4n3Cc3ccc(F)cc3)CC2)cc1 [Astemizole, 1-(4-fluorobenzyl)-2-(1-[4-methoxyphenethyl]piperidin-4-yl)aminobenzimidazole]	–	8.75	–	Yes	–
CC(C)COCC(CN(Cc1ccccc1)c1ccccc1)N1CCCC1.Cl (centres unmarked) [Bepridil hydrochloride, 1-isobutoxy-2-pyrrolidino-3-(N-benzylanilino) propane hydrochloride]	7.17	9.16	–	–	In Vitro PLD (phospholipidosis): Yes
CC(C)NCC(O)COc1ccc(CCOCC2CC2)cc1 (centres unmarked) [Betaxolol, 1-{4-[2-(cyclopropylmethoxy)ethyl]phenoxy}-3-[(propan-2-yl)amino]propan-2-ol]	–	9.67	-1.29 ± 0.9	Yes	LPLA2 inhibition (in words) ([1]; acyl transferase activity): no inhibitory activity
CN(Cc1cc(Br)cc(Br)c1N)C1CCCCC1.Cl [Bromhexine, 2-amino-3,5-dibromo-N-cyclohexyl-N-methylbenzylamine hydrochloride]	30.8	9.32	1.26 ± 0.2	Yes	–
CC(C)C[C@H]1C(=O)N2CCC[C@H]2[C@]2(O)O[C@](NC(=O)[C@@H]3C=C4c5cccc6[nH]c(Br)c(c56)C[C@H]4N(C)C3)(C(C)C)C(=O)N12 [Bromocriptine, (4R,7R)-10-bromo-N-[(1S,2S,4R,7S)-2-hydroxy-7-(2-methylpropyl)-5,8-dioxo-4-(propan-2-yl)-3-oxa-6,9-diazatricyclo[7.3.0.0ˆ{2,6}]dodecan-4-yl]-6-methyl-6,11diazatetracyclo[7.6.1.0ˆ{2,7}.0ˆ{12,16}]hexadeca-1(16),2,9,12,14-pentaene-4-carboxamide]	125	6.71	–	Yes	–
CN(C)CCC(c1ccc(Cl)cc1)c1ccccn1 (centres unmarked) [Chlorpheniramine, [3-(4-chlorophenyl)-3-(pyridin-2-yl)propyl] dimethylamine]	147	9.47	0.34 ± 0.0	Yes	–
CN1CCC[C@@H]1CCO[C@](C)(c1ccccc1)c1ccc(Cl)cc1 [Clemastine]	–	9.55	–	Yes	–
CC(C)(C)NCC(O)c1cc(Cl)c(N)c(Cl)c1.Cl (stereo not drawn) [Clenbuterol, 4-amino-3,5-dichloro-α-[[(1,1-dimethylethyl)amino]methyl]-benzenemethanol, monohydrochloride]	–	–	1.20 ± 0.23	Yes	LPLA2 inhibition (in words) [1]: millimolar concentrations; IC50 ([1]; LPLA2 IC50): 7300 µM
CC(C)N=c1cc2n(-c3ccc(Cl)cc3)c3ccccc3nc-2cc1Nc1ccc(Cl)cc1 [Clofazimine, N,5-bis(4-chlorophenyl)-3,5-dihydro-3-(isopropylimino)phenazin-2-amine]	10.8	–	-0.97 ± 0.1	Yes	–
CN(C)CCOC(c1ccccc1)c1ccccc1 [Diphenhydramine]	–	–	–	Yes	–
C[C@]12C=CC(=O)N[C@@H]1CC[C@@H]1[C@@H]2CC[C@]2(C)[C@@H](C(=O)Nc3cc(C(F)(F)F)ccc3C(F)(F)F)CC[C@@H]12 [Dutasteride, (1S,2R,7R,10S,11S,14S,15S)-N-[2,5-bis (trifluoromethyl)phenyl]-2,15-dimethyl-5-oxo-6-azatetracyclo[8.7.0.0^2,^7.0^11,^15]heptadec-3-ene-14-carboxamide]	1050	2.17	–	Yes	–
O=C(O)c1cc(O)ccc1O [Gentisic acid, 2,5-dihydroxybenzoic acid sodium salt]	–	–	–	Yes	–
CN1CCC(=C2c3ccccc3CC(=O)c3sccc32)CC1 [Ketotifen]	19.7	–	0.10 ± 0.0	Yes	–

Structure (SMILES)	IC50 [1, 3] [µM]	pKa (basic) [2]	(ΔTm)c-(ΔTm)d, difference in melting temperature of LPLA2 alone or in the presence of drug (LPLA2; N=3 ± SD) [°C]	In Vitro PLD (phospholipidosis; [4])	also measured
CCOC(=O)N1CCC(=C2c3ccc(Cl)cc3CCc3cccnc32)CC1 [Loratadine, ethyl 4-{13-chloro-4-azatricyclo[9.4.0.0^3,^8]pentadeca-1(11),3(8),4,6,12,14-hexaen-2-ylidene}piperidine-1-carboxylate]	8.94	–	–	Yes	–
CC12CC3CC(C)(C1)CC(N)(C3)C2.Cl [Memantine, 3,5-Dimethyl-1-adamantanamine hydrochloride]	35.7	–	2.00 ± 0.2	Yes	–
CN(C)CCN(Cc1cccs1)c1ccccn1 [Methapyrilene, N-[2-(dimethylamino)ethyl]-N-[(thiophen-2-yl)methyl]pyridin-2-amine]	–	8.85	–	Yes	–
CN1CCN2c3ccccc3Cc3ccccc3C2C1 (centres unmarked) [Mianserin, 5-methyl-2,5 diazatetracyclo [13.4.0.0^2,^7.0^8,^1³] nonadeca-1(19),8,10,12,15,17-hexaene]	–	6.9	–	Yes	–
CN1CCN2c3ncccc3Cc3ccccc3C2C1 (centres unmarked) [Mirtazapine, 5-methyl-2,5,19-triazatetracyclo [13.4.0.0^2,^7.0^8,^1³] nonadeca-1(15),8,10,12,16,18-hexaene]	8.7	6.67	-1.30 ± 0.7	–	–
Clc1ccc(C(c2ccccc2Cl)C(Cl)Cl)cc1 (centres unmarked) [Mitotane, 1-chloro-4-[2,2-dichloro-1-(2-chlorophenyl)ethyl] benzene]	132	–	–	Yes	(ΔTm)c-(ΔTm)d, difference in melting temperature of LPLA2 alone or in the presence of drug (LPLA2): 0.47 ± 0.1 °C
c1ccc2c(CC3=NCCN3)cccc2c1 [Naphazoline, 2-(naphthalen-1-ylmethyl)-4,5-dihydro-1H-imidazole]	–	10.19	–	Yes	–
CCN(CC)CCc1nc(-c2ccccc2)no1 [Oxolamine citrate, diethyl[2-(3-phenyl-1,2,4-oxadiazol-5-yl)ethyl]amine]	369	8.96	–	Yes	–
CCN(CC)CC#CCOC(=O)C(O)(c1ccccc1)C1CCCCC1 (stereo not drawn) [Oxybutynin, α-phenylcyclohexaneglycolic acid 4-(diethylamino)-2-butynyl ster hydrochloride]	–	8.77	–	Yes	–
OCCN1CCN(CCCN2c3ccccc3Sc3ccc(Cl)cc32)CC1 [Perphenazine]	–	8.21	–	–	IC50 ([1]; LPLA2 IC50, 1-O-acyl N-acetylsphingosine synthase activity, pH 4.5, DOPC/sulfatide liposomes): 3.92 µM; (ΔTm)c-(ΔTm)d, difference in melting temperature of LPLA2 alone or in the presence of drug (LPLA2): -0.41 ± 0.2 °C
CCOc1ccc(NC(C)=O)cc1 [Phenacetin, N-(4-ethoxyphenyl) acetamide]	2140	-4.2	-2.30 ± 0.6	–	–
O=C(Nc1cccc2c(=O)cc(-c3nnn[nH]3)oc12)c1ccc(OCCCCc2ccccc2)cc1 [Pranlukast, N-[4-oxo-2-(2H-1,2,3,4-tetrazol-5-yl)-4H-chromen-8-yl]-4-(4-phenylbutoxy)benzamide]	–	-1.7	0	Yes	–
CCCN(CCC)CCc1cccc2c1CC(=O)N2 [Ropinirole, 4-[2-(dipropylamino)ethyl]-2,3-dihydro-1H-indol-2-one]	–	10.17	–	Yes	–
O=C(CCCN1CCC2(CC1)C(=O)NCN2c1ccccc1)c1ccc(F)cc1 [Spiperone, 8-[3-(p-fluor benzoyl)propyl]-1-phenyl-1,3,8-triazaspiro [4.5]decan-4-one]	519	–	1.86 ± 0.1	Yes	–
CC1=C(CC(=O)O)c2cc(F)ccc2/C1=C\c1ccc([S+](C)[O-])cc1 (centres unmarked) [Sulindac, 2-[(1Z)-5-fluoro-1-[(4-methanesulfinylphenyl)methylidene]-2-methyl-1H-inden-3-yl]acetic acid]	10.9	–	-0.10 ± 0.0	Yes	–
Nc1c2c(nc3ccccc13)CCCC2 [Tacrine, 1,2,3,4-tetrahydroacridin-9-amine]	–	–	–	–	In Vitro PLD (phospholipidosis): Yes
